Calls of active or inactive are those of the source. Rule as the data show it: actives have a measured IC50 and inactives only a lower limit.
Assays:
[1] = molecular target: T1, Sentrin-specific protease 7 (Homo sapiens, UniProt Q9BQF6); format: functional;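 also: Luminescence-based dose-response confirmation of ultra-high-throughput screening hits, measuring inhibition of SENP7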
T1 sequence (Q9BQF6 whole entry): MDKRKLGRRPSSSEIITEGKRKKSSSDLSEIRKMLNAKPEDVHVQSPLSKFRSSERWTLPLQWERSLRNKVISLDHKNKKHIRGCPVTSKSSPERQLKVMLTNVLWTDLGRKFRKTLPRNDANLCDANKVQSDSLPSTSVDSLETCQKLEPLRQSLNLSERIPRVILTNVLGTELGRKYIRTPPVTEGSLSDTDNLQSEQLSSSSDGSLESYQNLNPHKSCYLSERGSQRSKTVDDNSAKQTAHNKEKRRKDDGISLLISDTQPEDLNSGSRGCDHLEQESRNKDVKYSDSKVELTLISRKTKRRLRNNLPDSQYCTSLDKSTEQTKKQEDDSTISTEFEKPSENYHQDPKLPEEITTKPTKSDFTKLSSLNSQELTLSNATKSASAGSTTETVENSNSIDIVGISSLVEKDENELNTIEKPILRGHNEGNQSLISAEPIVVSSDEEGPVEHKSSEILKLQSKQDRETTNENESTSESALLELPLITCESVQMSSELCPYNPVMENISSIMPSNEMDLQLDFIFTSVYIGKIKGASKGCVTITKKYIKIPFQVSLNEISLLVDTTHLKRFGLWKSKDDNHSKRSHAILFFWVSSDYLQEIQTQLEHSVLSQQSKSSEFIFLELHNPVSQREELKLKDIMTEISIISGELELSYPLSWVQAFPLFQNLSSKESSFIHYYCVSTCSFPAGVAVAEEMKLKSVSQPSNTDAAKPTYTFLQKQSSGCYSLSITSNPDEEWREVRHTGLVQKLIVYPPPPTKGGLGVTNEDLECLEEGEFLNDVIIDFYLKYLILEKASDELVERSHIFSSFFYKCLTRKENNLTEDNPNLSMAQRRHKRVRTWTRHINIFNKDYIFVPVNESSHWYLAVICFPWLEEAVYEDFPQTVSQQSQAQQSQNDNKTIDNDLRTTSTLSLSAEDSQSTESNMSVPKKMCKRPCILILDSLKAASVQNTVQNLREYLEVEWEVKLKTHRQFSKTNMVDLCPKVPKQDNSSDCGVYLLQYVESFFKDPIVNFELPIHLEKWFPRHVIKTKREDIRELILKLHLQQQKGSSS

[2] = molecular target: T2, Apoptotic protease-activating factor 1 (Homo sapiens, UniProt O14727); format: functional
T2 sequence (O14727 whole entry): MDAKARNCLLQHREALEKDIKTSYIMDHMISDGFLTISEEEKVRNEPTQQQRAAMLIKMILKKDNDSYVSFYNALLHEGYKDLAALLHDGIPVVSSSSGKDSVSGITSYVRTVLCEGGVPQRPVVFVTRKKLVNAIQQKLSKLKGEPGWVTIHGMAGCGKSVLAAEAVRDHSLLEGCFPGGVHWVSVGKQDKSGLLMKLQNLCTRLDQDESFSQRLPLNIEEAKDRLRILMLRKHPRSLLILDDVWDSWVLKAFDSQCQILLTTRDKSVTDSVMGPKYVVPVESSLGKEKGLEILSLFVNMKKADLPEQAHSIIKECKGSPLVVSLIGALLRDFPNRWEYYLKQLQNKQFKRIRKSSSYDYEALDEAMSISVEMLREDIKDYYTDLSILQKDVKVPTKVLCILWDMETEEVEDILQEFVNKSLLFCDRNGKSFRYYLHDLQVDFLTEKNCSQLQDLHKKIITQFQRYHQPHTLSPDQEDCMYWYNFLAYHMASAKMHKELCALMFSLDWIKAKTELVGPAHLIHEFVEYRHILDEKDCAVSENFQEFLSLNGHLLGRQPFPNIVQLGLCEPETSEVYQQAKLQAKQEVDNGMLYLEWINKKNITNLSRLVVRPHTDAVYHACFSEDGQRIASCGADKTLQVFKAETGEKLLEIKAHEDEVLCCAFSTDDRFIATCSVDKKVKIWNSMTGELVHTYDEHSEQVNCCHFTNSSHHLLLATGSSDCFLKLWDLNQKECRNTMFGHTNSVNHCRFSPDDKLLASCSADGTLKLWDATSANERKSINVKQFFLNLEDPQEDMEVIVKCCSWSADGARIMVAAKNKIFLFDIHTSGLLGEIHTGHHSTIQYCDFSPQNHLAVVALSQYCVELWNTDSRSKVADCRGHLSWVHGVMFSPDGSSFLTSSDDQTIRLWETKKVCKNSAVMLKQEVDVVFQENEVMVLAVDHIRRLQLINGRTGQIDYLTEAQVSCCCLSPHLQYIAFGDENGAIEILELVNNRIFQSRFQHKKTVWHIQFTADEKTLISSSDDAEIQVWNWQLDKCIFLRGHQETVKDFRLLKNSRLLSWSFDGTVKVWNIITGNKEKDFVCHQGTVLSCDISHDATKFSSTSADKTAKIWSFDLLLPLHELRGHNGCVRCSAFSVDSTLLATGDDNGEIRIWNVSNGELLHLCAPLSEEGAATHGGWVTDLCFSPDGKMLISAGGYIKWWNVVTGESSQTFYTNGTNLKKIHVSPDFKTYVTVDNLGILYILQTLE

Row | SMILES | IC50 [1] | IC50 [2]
1 | O=C(Nc1ccc(C#Cc2ccccc2)cc1)C1CC1 | 3.38 µM (active) | 
2 | CCCCn1c(NC(=O)c2ccco2)c(C(=O)OCC)c2nc3ccccc3nc21 | 10.1 µM (active) | 13 µM (active)
3 | Cc1ccccc1NC1=C/C(=N\S(=O)(=O)c2ccc(C(=O)O)cc2)c2ccccc2C1=O |  | 1.59 µM (active)
4 | Cc1ccc(NC2=C/C(=N/S(=O)(=O)c3cccs3)c3ccccc3C2=O)cc1 | 0.359 µM (active) | 0.453 µM (active)
5 | COc1ccc(-c2cc(-c3ccc(C)cc3)[nH]n2)c(O)c1 | 6.63 µM (active) | 

— ChEMBL document CHEMBL1201862, “PubChem BioAssay data set” (2004)
